Biological target: T1, NfoR (NAD(P)H-flavin oxidoreductase) (Staphylococcus aureus, UniProt Q2FVA4)
T1 construct: gene SAOUHSC_02829; N-terminal 6xHis tag, pET-28a (pEnfoR), E. coli Rosetta (DE3), HisTrap; dimer by homology model only; residues named: His100, His128, Cys163, Met165
T1 sequence (Q2FVA4 1-223): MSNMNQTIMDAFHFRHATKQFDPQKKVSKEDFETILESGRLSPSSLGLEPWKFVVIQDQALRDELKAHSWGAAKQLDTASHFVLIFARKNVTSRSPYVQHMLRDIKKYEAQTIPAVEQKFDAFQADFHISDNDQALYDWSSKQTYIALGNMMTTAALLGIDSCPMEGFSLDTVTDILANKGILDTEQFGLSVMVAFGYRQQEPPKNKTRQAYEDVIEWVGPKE
Test: HPLC of flavin released by heating the purified protein
Type: binding
Conditions: FMN co-purified with the protein; non-covalent; occupancy, not an affinity

For `Cc1cc2nc3c(=O)[nH]c(=O)nc-3n(C[C@H](O)[C@H](O)[C@H](O)COP(=O)(O)O)c2cc1C` [FMN], the “percent of FMN/isolated NfoR” value was 79.98%.
